Test results as given in ChEMBL document CHEMBL1135060, “Design and synthesis of peptide-based carboxylic acid-containing transition-state inhibitors of human neutrophil elastase” (Bioorg Med Chem Lett, 2002).

Each compound was assayed against T1, Neutrophil elastase (Homo sapiens, UniProt P08246) (assay: In vitro inhibition of the human neutrophil elastase-catalyzed hydrolysis of the synthetic substrate Suc-Ala-Pro-Ala-MCA).
T1 sequence (P08246 whole entry): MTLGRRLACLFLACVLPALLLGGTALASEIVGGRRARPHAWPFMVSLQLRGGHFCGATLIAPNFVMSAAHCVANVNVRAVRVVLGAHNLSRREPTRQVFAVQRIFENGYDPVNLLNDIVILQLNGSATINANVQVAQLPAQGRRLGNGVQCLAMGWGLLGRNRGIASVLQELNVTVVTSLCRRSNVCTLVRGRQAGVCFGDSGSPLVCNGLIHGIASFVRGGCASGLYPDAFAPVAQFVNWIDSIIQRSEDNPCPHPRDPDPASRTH

Point of comparison: CC(C)[C@H](NC(=O)[C@@H]1CCCN1C(=O)[C@@H](NC(=O)CNC(=O)c1ccc(OCC(=O)O)cc1)C(C)C)C(=O)c1nc2ccccc2o1, IC50 33 nM. Against it:
- CC(C)=CCOc1cccc2oc(C(=O)[C@@H](NC(=O)OCc3ccccc3)C(C)C)nc12 — higher, > 10000 nM
- COC(=O)COc1cccc2oc(C(=O)[C@@H](NC(=O)OCc3ccccc3)C(C)C)nc12 — higher, > 10000 nM
- CCCCCOc1cccc2oc(C(=O)[C@@H](NC(=O)OCc3ccccc3)C(C)C)nc12 — higher, > 10000 nM
- CC(C)CCOc1cccc2oc(C(=O)[C@@H](NC(=O)OCc3ccccc3)C(C)C)nc12 — 240-fold higher, 7800 nM
- CC(C)[C@H](NC(=O)[C@@H]1CCCN1C(=O)[C@@H](NC(=O)/C=C/C(=O)O)C(C)C)C(=O)c1nc2ccccc2o1 — 2.2-fold higher, 72 nM
- CC(C)[C@H](NC(=O)OCc1ccccc1)C(=O)c1nc2c(OCC(N)=O)cccc2o1 — higher, > 10000 nM
- CC(C)[C@H](NC(=O)OCc1ccccc1)C(=O)c1nc2ccccc2o1 — higher, > 10000 nM
- CC(C)[C@H](NC(=O)OCc1ccccc1)C(=O)c1nc2c(OCC(=O)O)cccc2o1 — higher, > 10000 nM
- CC(C)[C@H](NC(=O)COc1ccc(OCC(=O)O)cc1)C(=O)c1nc2c(OC(=O)C(C)(C)C)cccc2o1 — 3.9-fold higher, 130 nM
- CC(C)[C@H](NC(=O)[C@@H]1CCCN1C(=O)[C@@H](NC(=O)COC(=O)c1ccc(OCC(=O)O)cc1)C(C)C)C(=O)c1nc2ccccc2o1 — 2.5-fold lower, 13 nM
- CC(C)[C@H](NC(=O)OCc1ccccc1)C(=O)c1nc2c(OCc3cccc(C(F)(F)F)c3)cccc2o1 — higher, > 10000 nM
- CC(C)[C@H](NC(=O)[C@@H]1CCCN1C(=O)[C@@H](NC(=O)c1ccc(OCC(=O)O)cc1)C(C)C)C(=O)c1nc2ccccc2o1 — 4.5-fold lower, 7.4 nM
- CC(C)[C@H](NC(=O)[C@H]1CCCN1C(=O)COc1ccc(OCC(=O)O)cc1)C(=O)c1nc2c(OC(=O)C(C)(C)C)cccc2o1 — 7-fold higher, 230 nM
- CC(C)CCOc1cccc2oc(C(=O)[C@@H](NC(=O)[C@H]3CCCN3C(=O)COc3ccc(OCC(=O)O)cc3)C(C)C)nc12 — 8.8-fold higher, 290 nM
- CC(C)[C@H](NC(=O)OCc1ccccc1)C(=O)c1nc2c(OCCN(C)C)cccc2o1 — higher, > 10000 nM
- CC(C)[C@H](NC(=O)[C@@H]1CCCN1C(=O)[C@@H](NC(=O)COc1ccccc1OCC(=O)O)C(C)C)C(=O)c1nc2ccccc2o1 — 4.6-fold lower, 7.2 nM
- CC(C)[C@H](NC(=O)OCc1ccccc1)C(=O)c1nc2c(OC(=O)C(C)(C)C)cccc2o1 — 14-fold higher, 450 nM
- CCCCC(Oc1cccc2oc(C(=O)[C@@H](NC(=O)OCc3ccccc3)C(C)C)nc12)c1ccccc1 (stereo not given in full) — higher, > 10000 nM
- CC(C)[C@H](NC(=O)OCc1ccccc1)C(=O)c1nc2c(O)cccc2o1 — higher, > 10000 nM
- CC(C)[C@H](NC(=O)OCc1ccccc1)C(=O)c1nc2c(OCc3ccccc3)cccc2o1 — higher, > 10000 nM
- CC(C)[C@H](NC(=O)[C@@H]1CCCN1C(=O)[C@@H](NC(=O)COc1ccc(SCC(C)(C)C(=O)O)cc1)C(C)C)C(=O)c1nc2ccccc2o1 — 9.4-fold lower, 3.5 nM
- CC(C)[C@H](NC(=O)[C@@H]1CCCN1C(=O)[C@@H](NC(=O)COc1ccc(OCC(=O)O)cc1)C(C)C)C(=O)c1nc2c(OC(=O)C(C)(C)C)cccc2o1 — 3.7-fold lower, 8.9 nM
- CC(C)[C@H](NC(=O)[C@@H]1CCCN1C(=O)[C@@H](NC(=O)CCC(=O)O)C(C)C)C(=O)c1nc2ccccc2o1 — 2-fold higher, 66 nM
- CCOc1cccc2oc(C(=O)[C@@H](NC(=O)OCc3ccccc3)C(C)C)nc12 — higher, > 10000 nM
- CC(C)[C@H](NC(=O)[C@@H]1CCCN1C(=O)[C@@H](NC(=O)N[C@H](C)C(=O)O)C(C)C)C(=O)c1nc2ccccc2o1 — 8.5-fold higher, 280 nM

The compounds below were run on Cricetinae gen. sp. (assay: The compound was evaluated for its ability to inhibit the human neutrophil elastase-induced lung hemorrhage in hamster by intravenous bolus administration of 30 mg/kg dose).
Format: functional, Cricetulus griseus

Point of comparison: CC(C)[C@H](NC(=O)[C@@H]1CCCN1C(=O)[C@@H](NC(=O)CNC(=O)c1ccc(OCC(=O)O)cc1)C(C)C)C(=O)c1nc2ccccc2o1, inhibition in vivo at 30 mg/kg 99%. Against it:
- CC(C)[C@H](NC(=O)[C@@H]1CCCN1C(=O)[C@@H](NC(=O)COc1ccc(SCC(C)(C)C(=O)O)cc1)C(C)C)C(=O)c1nc2ccccc2o1 — lower, 86%

The compounds below were run on Cricetinae gen. sp. (assay: The compound was evaluated for its ability to inhibit the human neutrophil elastase-induced lung hemorrhage in hamster by intravenous bolus administration of 30 mg/Kg dose).
Format: functional, Cricetulus griseus

Point of comparison: CC(C)[C@H](NC(=O)[C@@H]1CCCN1C(=O)[C@@H](NC(=O)CCC(=O)O)C(C)C)C(=O)c1nc2ccccc2o1, inhibition in vivo at 30 mg/kg 61%. Against it:
- CC(C)[C@H](NC(=O)COc1ccc(OCC(=O)O)cc1)C(=O)c1nc2c(OC(=O)C(C)(C)C)cccc2o1 — lower, 13%
- CC(C)[C@H](NC(=O)[C@@H]1CCCN1C(=O)[C@@H](NC(=O)COC(=O)c1ccc(OCC(=O)O)cc1)C(C)C)C(=O)c1nc2ccccc2o1 — higher, 75%
- CC(C)[C@H](NC(=O)[C@@H]1CCCN1C(=O)[C@@H](NC(=O)c1ccc(OCC(=O)O)cc1)C(C)C)C(=O)c1nc2ccccc2o1 — lower, 60%
- CC(C)[C@H](NC(=O)[C@H]1CCCN1C(=O)COc1ccc(OCC(=O)O)cc1)C(=O)c1nc2c(OC(=O)C(C)(C)C)cccc2o1 — higher, 66%
- CC(C)CCOc1cccc2oc(C(=O)[C@@H](NC(=O)[C@H]3CCCN3C(=O)COc3ccc(OCC(=O)O)cc3)C(C)C)nc12 — lower, -16%
- CC(C)[C@H](NC(=O)[C@@H]1CCCN1C(=O)[C@@H](NC(=O)COc1ccccc1OCC(=O)O)C(C)C)C(=O)c1nc2ccccc2o1 — lower, 48%
- CC(C)[C@H](NC(=O)[C@@H]1CCCN1C(=O)[C@H](NC(=O)COc1ccc(OCC(=O)O)cc1)C(C)C)C(=O)c1nc2ccccc2o1 — lower, 56%
- CC(C)[C@H](NC(=O)[C@@H]1CCCN1C(=O)[C@@H](NC(=O)COc1ccc(OCC(=O)O)cc1)C(C)C)C(=O)c1nc2c(OC(=O)C(C)(C)C)cccc2o1 — higher, 73%
- CC(C)[C@H](NC(=O)[C@@H]1CCCN1C(=O)[C@@H](NC(=O)N[C@H](C)C(=O)O)C(C)C)C(=O)c1nc2ccccc2o1 — lower, 39%

The compounds below were run on Cricetinae gen. sp. (assay: The compound was evaluated for its ability to inhibit the HNE-induced lung hemorrhage in hamster by intravenous bolus administration of 10 mg/Kg dose).
Format: functional, Cricetulus griseus

CC(C)[C@H](NC(=O)[C@@H]1CCCN1C(=O)[C@@H](NC(=O)COC(=O)c1ccc(OCC(=O)O)cc1)C(C)C)C(=O)c1nc2ccccc2o1 showed an inhibition in vivo at 10 mg/kg of 12%.

Each compound was assayed on Cricetinae gen. sp. (assay: The compound was evaluated for its ability to inhibit the human neutrophil elastase-induced lung hemorrhage in hamster by intravenous bolus administration of 10 mg/Kg dose).
Format: functional, Cricetulus griseus

Point of comparison: CC(C)[C@H](NC(=O)[C@@H]1CCCN1C(=O)[C@@H](NC(=O)COc1ccc(SCC(C)(C)C(=O)O)cc1)C(C)C)C(=O)c1nc2ccccc2o1, inhibition in vivo at 10 mg/kg 30%. Against it:
- CC(C)[C@H](NC(=O)[C@@H]1CCCN1C(=O)[C@@H](NC(=O)c1ccc(OCC(=O)O)cc1)C(C)C)C(=O)c1nc2ccccc2o1 — lower, 15%
- CC(C)[C@H](NC(=O)[C@@H]1CCCN1C(=O)[C@@H](NC(=O)COc1ccccc1OCC(=O)O)C(C)C)C(=O)c1nc2ccccc2o1 — higher, 37%

Each compound was assayed on Cricetinae gen. sp. (assay: The compound was evaluated for its ability to inhibit the human neutrophil elastase-induced lung hemorrhage in hamster by intravenous bolus administration of 10 mg/kg dose).
Format: functional, Cricetulus griseus

Work on CC(C)[C@H](NC(=O)[C@@H]1CCCN1C(=O)[C@@H](NC(=O)CNC(=O)c1ccc(OCC(=O)O)cc1)C(C)C)C(=O)c1nc2ccccc2o1 yielded an inhibition in vivo at 10 mg/kg of 46%.

The compounds below were run on Cricetinae gen. sp. (assay: The compound was evaluated for its ability to inhibit the human neutrophil elastase-induced lung hemorrhage in hamster by intravenous bolus administration of 100 mg/Kg dose).
Format: functional, Cricetulus griseus

Point of comparison: CC(C)[C@H](NC(=O)[C@@H]1CCCN1C(=O)[C@@H](NC(=O)COc1ccccc1OCC(=O)O)C(C)C)C(=O)c1nc2ccccc2o1, inhibition in vivo at 100 mg/kg 90%. Against it:
- CC(C)[C@H](NC(=O)COc1ccc(OCC(=O)O)cc1)C(=O)c1nc2c(OC(=O)C(C)(C)C)cccc2o1 — lower, 74%
- CC(C)[C@H](NC(=O)[C@H]1CCCN1C(=O)COc1ccc(OCC(=O)O)cc1)C(=O)c1nc2c(OC(=O)C(C)(C)C)cccc2o1 — higher, 96%
- CC(C)CCOc1cccc2oc(C(=O)[C@@H](NC(=O)[C@H]3CCCN3C(=O)COc3ccc(OCC(=O)O)cc3)C(C)C)nc12 — higher, 99%
- CC(C)[C@H](NC(=O)[C@@H]1CCCN1C(=O)[C@H](NC(=O)COc1ccc(OCC(=O)O)cc1)C(C)C)C(=O)c1nc2ccccc2o1 — higher, 98%
- CC(C)[C@H](NC(=O)[C@@H]1CCCN1C(=O)[C@@H](NC(=O)COc1ccc(SCC(C)(C)C(=O)O)cc1)C(C)C)C(=O)c1nc2ccccc2o1 — higher, 99%
- CC(C)[C@H](NC(=O)[C@@H]1CCCN1C(=O)[C@@H](NC(=O)COc1ccc(OCC(=O)O)cc1)C(C)C)C(=O)c1nc2c(OC(=O)C(C)(C)C)cccc2o1 — higher, 99%
